According to patent publication EP2269591B1, “IMPROVED PHARMACEUTICAL FORMULATIONS” (AbbVie Inc., priority 2000, dated 2001):
Read-outs that look alike come from different tables or passages of the source.

Assay: oral bioavailability in dogs
Type: in vivo
Settings: unformulated solid in a capsule dosage form, 5 mg/kg oral dose in dogs
Description: Dogs (beagle dogs, mixed sexes, weighing 7-14 kg) were fasted overnight prior to dosing, but were permitted water ad libitum. Each dog received a 100 µg/kg subcutaneous dose of histamine approximately 30 minutes prior to dosing. Each dog received a single dosage form corresponding to a 5 mg/kg dose of the drug. The dose was followed by approximately 10 milliliters of water. Blood samples were obtained from each animal prior to dosing and 0.25, 0.5, 1.0, 1.5, 2, 3, 4, 6, 8, 10, and 12 hours after drug administration. The plasma was separated from the red cells by centrifugation and frozen (-30 °C) until analysis. Concentrations of parent drug were determined by reverse phase HPLC with low wavelength UV detection following liquid-liquid extraction of the plasma samples. The parent drug area under the curve was calculated by the trapezoidal method over the time course of the study. The absolute bioavailability of each test composition was calculated by comparing the area under the curve after oral dosing to that obtained from a single intravenous dose. Each capsule or capsule composition was evaluated in a group containing at least six dogs; the values reported are averages for each group of dogs.

bioavailability | bioavailability (dog, in vivo, read-out: bioavailability) [%] | SMILES
less than 2% |  | CC(C)c1nc(CN(C)C(=O)N[C@H](C(=O)N[C@@H](Cc2ccccc2)C[C@H](O)[C@H](Cc2ccccc2)NC(=O)OCc2cncs2)C(C)C)cs1 [compound of formula I]
 | < 2 | CC(C)c1nc(CN(C)C(=O)NC(C(=O)NC(Cc2ccccc2)CC(O)C(Cc2ccccc2)NC(=O)OCc2cncs2)C(C)C)cs1 (centres unmarked) [bis-tosylate of a compound of formula I]
